# Data from patent US9095136B2, “2-IODO imidazole-derivatives” (BAYER INTELLECTUAL PROPERTY GMBH, priority 2011, dated 2015).
# Values joined by “and” are separate entries in the source; they are usually repeats but may differ in a detail not shown here. Equal values may be shown once. Read-outs that look alike come from different tables or passages of the source. Marks after values point to notes of the source that are not given here.
# Legend:
# Alternaria brassicae = assay: Example O: preventative in vivo test with Alternaria brassicae (leaf spot on radish); settings: 500 ppm, evaluation 5 days after inoculation
# Protocol: The active compounds tested are prepared by homogenization in a mixture of acetone/Tween/DMSO and then diluted with water to the desired active compound concentration. Radish plants (cultivar “Pernod Clair”), sown in a 50/50 peat/pozzolana soil substrate and cultivated at 17° C., are treated at the 2-leaf stage by spraying with the active compound, prepared as above. As a control, plants are treated with the mixture of acetone/Tween/DMSO/water without the active compound. After 24 hours, the plants are inoculated by spraying the leaves with an aqueous suspension of Alternaria brassicae spores.
# Puccinia recondita = assay: Example T: preventative in vivo test with Puccinia recondita (brown rust on wheat); settings: 500 ppm, evaluation 10 days after inoculation
# Protocol: The active compounds tested are prepared by homogenization in a mixture of acetone/Tween/DMSO and then diluted with water to the desired active compound concentration. Wheat plants (cultivar “Scipion”), sown in a 50/50 peat/pozzolana soil substrate and cultivated at 22° C. (12 h)/20° C. (12 h), are treated at the 1-leaf stage (height 10 cm) by spraying with the active compound, prepared as above. As a control, plants are treated with the mixture of acetone/Tween/DMSO/water without the active compound. After 24 hours, the plants are inoculated by spraying the leaves with an aqueous suspension of Puccinia recondita spores.
# Septoria tritici [1] = assay: Example U: preventative in vivo test with Septoria tritici (leaf blotch disease on wheat); settings: 500 ppm, evaluation 21 to 28 days after inoculation
# Protocol: The active compounds tested are prepared by homogenization in a mixture of acetone/Tween/DMSO and then diluted with water to the desired active compound concentration. Wheat plants (cultivar “Scipion”), sown in a 50/50 peat/pozzolana soil substrate and cultivated at 22° C. (12 h)/20° C. (12 h), are treated at the 1-leaf stage (height 10 cm) by spraying with the active compound, prepared as above. As a control, plants are treated with the mixture of acetone/Tween/DMSO/water without the active compound. After 24 hours, the plants are inoculated by spraying the leaves with an aqueous suspension of cryogenically preserved Septoria tritici spores.
# Sphaerotheca fuliginea [2] = assay: Example V: preventative in vivo test with Sphaerotheca fuliginea (powdery mildew on cucumber); settings: 500 ppm, evaluation 12 days after inoculation
# Protocol: The active compounds tested are prepared by homogenization in a mixture of acetone/Tween/DMSO and then diluted with water to the desired active compound concentration. Cucumber plants (cultivar “Vert petit de Paris”), sown in a 50/50 peat/pozzolana soil substrate and cultivated at 24° C., are treated at the Z11 cotyledon stage by spraying with the active compound, prepared as above. As a control, plants are treated with the mixture of acetone/Tween/DMSO/water without the active compound. After 24 hours, the plants are inoculated by spraying the leaves with an aqueous suspension of Sphaerotheca fuliginea spores. The inoculated cucumber plants are incubated at about 20° C./25° C. and a relative atmospheric humidity of 60/70%.
# Uromyces appendiculatus [3] = assay: Example W: preventative in vivo test with Uromyces appendiculatus (bean rust); settings: 500 ppm, evaluation 10 days after inoculation
# Protocol: The active compounds tested are prepared by homogenization in a mixture of acetone/Tween/DMSO and then diluted with water to the desired active compound concentration. Bean plants (cultivar “Saxa”), sown in a 50/50 peat/pozzolana soil substrate and cultivated at 24° C., are treated at the 2-leaf stage (height 9 cm) by spraying with the active compound, prepared as above. As a control, plants are treated with the mixture of acetone/Tween/DMSO/water without the active compound. After 24 hours, the plants are inoculated by spraying the leaves with an aqueous suspension of Uromyces appendiculatus spores.
# [4] = log P by HPLC on reversed-phase columns (EEC directive 79/831 Annex V.A8); format: physicochemical
# Protocol: The log P values were measured according to EEC directive 79/831 Annex V.A8 by HPLC (High Performance Liquid Chromatography) on reversed-phase columns, using the methods below: […] Calibration was carried out using unbranched alkan-2-ones (having from 3 to 16 carbon atoms) with known log P values (the log P values were determined by the retention times using linear interpolation between two successive alkanones). The lambda maX values were determined in the maxima of the chromatographic signals using the UV spectra from 200 nm to 400 nm.
# Phytophthora infestans = format: in vivo; settings: tomato, preventative, 500 ppm, evaluation 5 days after inoculation
# Alternaria solani = assay: Example A: Alternaria test (tomato)/protective; format: in vivo; settings: protective, 500 ppm, evaluation 7 days after inoculation
# Protocol: Solvent: 49 parts by weight of N,N-dimethylformamide Emulsifier: 1 part by weight of alkylaryl polyglycol ether To produce a suitable preparation of active compound, 1 part by weight of active compound is mixed with the stated amounts of solvent and emulsifier, and the concentrate is diluted with water to the desired concentration. […] The plants then remain at 96% rel. atmospheric humidity and a temperature of 20° C.
# Sphaerotheca fuliginea [5] = assay: Example B: Sphaerotheca test (cucumber)/protective; format: in vivo; settings: protective, 500 ppm, evaluation 7 days after inoculation
# Protocol: Solvent: 49 parts by weight of N,N-dimethylformamide Emulsifier: 1 part by weight of alkylaryl polyglycol ether To produce a suitable preparation of active compound, 1 part by weight of active compound is mixed with the stated amounts of solvent and emulsifier, and the concentrate is diluted with water to the desired concentration. To test for protective activity, young cucumber plants are sprayed with the preparation of active compound at the stated application rate. 1 day after the treatment, the plants are inoculated with a spore suspension of Sphaerotheca fuliginea. The plants are then placed in a greenhouse at 70% relative air humidity and a temperature of 23° C.
# Pyricularia oryzae = format: in vivo; settings: rice, protective, 500 ppm, evaluation 7 days after inoculation
# Uromyces appendiculatus [6] = assay: Example E: Uromyces test (bean)/protective; format: in vivo; settings: protective, 10 ppm, evaluation 10 days after inoculation
# Protocol: Solvents: 24.5 parts by weight of acetone • 24.5 parts by weight of dimethylacetamide Emulsifier: 1 part by weight of alkylaryl polyglycol ether To produce a suitable preparation of active compound, 1 part by weight of active compound is mixed with the stated amounts of solvent and emulsifier, and the concentrate is diluted with water to the desired concentration. To test for protective activity, young plants are sprayed with the preparation of active compound at the stated application rate. […] The plants are then placed in a greenhouse at about 21° C. and a relative atmospheric humidity of about 90%.
# [7] = tested on: Blumeria graminis f.sp. hordei; assay: Example G: Blumeria graminis test (barley)/protective; format: in vivo; settings: protective, 500 ppm, evaluation 7 days after inoculation
# Protocol: (§1) Solvent: 49 parts by weight of N,N-dimethylacetamide Emulsifier: 1 part by weight of alkylaryl polyglycol ether To produce a suitable preparation of active compound, 1 part by weight of active compound is mixed with the stated amounts of solvent and emulsifier, and the concentrate is diluted with water to the desired concentration. To test for protective activity, young plants are sprayed with the preparation of active compound at the stated application rate. After the spray coating has dried on, the plants are dusted with spores of Blumeria graminis f.sp. hordei.
# Leptosphaeria nodorum = assay: Example H: Leptosphaeria nodorum test (wheat)/protective; format: in vivo; settings: protective, 500 ppm, evaluation 8 days after inoculation
# Protocol: as §1, with “sprayed” for “dusted”, “a spore suspension” for “spores”, “Leptosphaeria nodorum.” for “Blumeria graminis f.sp. hordei.”
# Septoria tritici [8] = assay: Example I: Septoria tritici test (wheat)/protective; format: in vivo; settings: protective, 500 ppm, evaluation 21 days after inoculation
# Protocol: as §1, with “sprayed” for “dusted”, “a spore suspension” for “spores”, “Septoria tritici.” for “Blumeria graminis f.sp. hordei.”
# Pyrenophora teres = assay: Example K: Pyrenophora teres test (barley)/protective; format: in vivo; settings: protective, 500 ppm, evaluation 8 days after inoculation
# Protocol: as §1, with “sprayed” for “dusted”, “a spore suspension” for “spores”, “Pyrenophora teres.” for “Blumeria graminis f.sp. hordei.”
# Puccinia triticina = assay: Example L: Puccinia triticina test (wheat)/protective; format: in vivo; settings: protective, 500 ppm, evaluation 8 days after inoculation
# Protocol: as §1, with “sprayed” for “dusted”, “spores with a spore suspension” for “spores”, “Puccinia triticina.” for “Blumeria graminis f.sp. hordei.”
# [9] = tested on: Fusarium nivale (var. majus); assay: Example M: Fusarium nivale (var. majus) test (wheat)/protective; format: in vivo; settings: protective, 500 ppm, evaluation 5 days after inoculation
# Protocol: as §1, with “sprayed” for “dusted”, “a spore suspension” for “spores”, “Fusarium nivale (var. majus).” for “Blumeria graminis f.sp. hordei.”
# Fusarium graminearum = format: in vivo; settings: barley (heading), protective, 500 ppm, evaluation 5 days after inoculation
smiles,measurement,setting,value
Fc1ccc(C2(Cn3ccnc3I)OC2c2ccccc2Cl)cc1 (mixture of isomers) [Example 6],Efficacy %,Alternaria brassicae,75%
Fc1cc(Cl)ccc1C1(Cn2ccnc2I)OC1c1ccccc1Cl (mixture of isomers) [Example 9],Efficacy %,Puccinia recondita,86%
same,Efficacy %,Septoria tritici [1],100%
same,Efficacy %,Sphaerotheca fuliginea [2],100%
same,Efficacy %,Uromyces appendiculatus [3],93%
Fc1ccc(C2(Cn3ccnc3I)OC2c2ccccc2Cl)c(Cl)c1 (mixture of isomers) [Example 15],Efficacy %,Puccinia recondita,100%
same,Efficacy %,Septoria tritici [1],86%
same,Efficacy %,Sphaerotheca fuliginea [2],98%
same,Efficacy %,Uromyces appendiculatus [3],100%
"Fc1ccc([C@]2(Cn3ccnc3I)O[C@@H]2c2ccccc2Cl)c(F)c1 (relative stereo) [Example 13, rel-1-{[(2R,3R)-3-(2-chlorophenyl)-2-(2,4-difluorophenyl)oxiran-2-yl]methyl}-2-iodo-1H-imidazole]",chromatographic logP,"[4]; pH 2.7, log P(HCOOH)",2.86
same,chromatographic logP,"[4]; pH 2.7, logP",2.86
same,Efficacy %,Phytophthora infestans,98%
"CC(=Cc1ccccc1Cl)c1ccc(F)cc1F [1-[1-(2-chlorophenyl)prop-1-en-2-yl]-2,4-difluorobenzene]",chromatographic logP,"[4]; pH 2.7, HPLC/MS, major diastereoisomer of the mixture, read-out: log P(HCOOH)",5.05
same,chromatographic logP,"[4]; pH 2.7, HPLC/MS, minor diastereoisomer of the mixture, read-out: log P(HCOOH)",5.34
"Fc1ccc(C(=Cc2ccccc2Cl)CBr)c(F)c1 [1-[3-bromo-1-(2-chlorophenyl)prop-1-en-2-yl]-2,4-difluorobenzene]",log P(HCOOH),[4]; pH 2.7,5.25
same,chromatographic logP,"[4]; pH 2.7, log P(HCOOH)",4.8
"Fc1ccc(C2(CBr)OC2c2ccccc2Cl)c(F)c1 (centres unmarked) [2-(bromomethyl)-3-(2-chlorophenyl)-2-(2,4-difluorophenyl)oxirane]",log P(HCOOH),[4]; pH 2.7,5.00
same,chromatographic logP,"[4]; pH 2.7, log P(HCOOH)",4.61
OC(Cc1ccccc1F)(Cn1ccnc1I)C1(Cl)CC1 (centres unmarked) [Example 2],logP,[4]; pH 2.7,2.05
same,logP,[4]; pH 7.8,3.02
same,Eff. %,Alternaria solani,95%
same,Eff. %,Sphaerotheca fuliginea [5],92%
same,Eff. %,Pyricularia oryzae,80%
same,Eff. %,Uromyces appendiculatus [6],91% and 100%
same,Eff. %,[7],100%
same,Eff. %,Leptosphaeria nodorum,93%
same,Eff. %,Septoria tritici [8],86%
same,Eff. %,Pyrenophora teres,100%
same,Eff. %,Puccinia triticina,100%
same,Eff. %,[9],100%
same,Eff. %,Fusarium graminearum,92% and 100%
OC(Cn1ccnc1I)(c1ccc(Cl)cc1)C1(Oc2ccc(F)cc2)CC1 (centres unmarked) [Example 3],logP,[4]; pH 2.7,2.55
same,logP,[4]; pH 7.8,3.55
OC(Cn1ccnc1I)(c1ccc(F)cc1F)C1(Oc2ccc(F)cc2)CC1 (centres unmarked) [Example 5],Eff. %,Sphaerotheca fuliginea [5],88%
same,Eff. %,Pyricularia oryzae,95%
Fc1ccc(C2(Cn3ccnc3I)OC2c2ccccc2Cl)cc1 (centres unmarked) [Example 7],logP,[4]; pH 2.7,2.73^[a]
Fc1cc(Cl)ccc1C1(Cn2ccnc2I)OC1c1ccccc1Cl (centres unmarked) [Example 10],logP,[4]; pH 2.7,3.23^[a]
same,Efficacy %,Septoria tritici [1],96%
same,Efficacy %,Sphaerotheca fuliginea [2],98%
"Fc1ccc(C2(Cn3ccnc3I)OC2c2ccccc2Cl)c(F)c1 (centres unmarked) [Example 12, 1-{[3-(2-chlorophenyl)-2-(2,4-difluorophenyl)oxiran-2-yl]methyl}-2-iodo-1H-imidazole]",log P(HCOOH),[4]; pH 2.7,3.31
same,chromatographic logP,"[4]; pH 2.7, log P(HCOOH)",2.92
same,chromatographic logP,"[4]; pH 2.7, logP",2.92
same,Eff. %,Septoria tritici [8],71%
same,Efficacy %,Phytophthora infestans,88%
same,Efficacy %,Puccinia recondita,93%
same,Efficacy %,Septoria tritici [1],100%
same,Efficacy %,Sphaerotheca fuliginea [2],100%
same,Efficacy %,Uromyces appendiculatus [3],99%
Fc1ccc(C2(Cn3ccnc3I)OC2c2ccccc2Cl)c(Cl)c1 (centres unmarked) [Example 16],logP,[4]; pH 2.7,3.13^[a]
Fc1ccc(C2(Cn3ccnc3I)OC2c2ccccc2Cl)c(Cl)c1 (centres unmarked) [Example 17],logP,[4]; pH 2.7,3.68^[a]
same,Eff. %,Uromyces appendiculatus [6],75%
same,Efficacy %,Puccinia recondita,100%
same,Efficacy %,Septoria tritici [1],97%
same,Efficacy %,Sphaerotheca fuliginea [2],100%
same,Efficacy %,Uromyces appendiculatus [3],100%
OC(Cc1c(Cl)cccc1I)(Cn1ccnc1I)C1(Cl)CC1 (centres unmarked) [Example 18],logP,[4]; pH 2.7,3.04
same,logP,[4]; pH 7.8,4
same,Efficacy %,Sphaerotheca fuliginea [2],100%
same,Efficacy %,Uromyces appendiculatus [3],100%
